ChEMBL document CHEMBL1201862, “PubChem BioAssay data set” (2004)
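Five compound concentrations were applied to cells in 96-well plates for 48 hours; endpoints were derived by simple linear interpolation of the resulting dose-response curve. GI50 is the concentration that inhibits growth by half.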 Calls of active or inactive are those of the source. No stated cut-off is given here; in the data, active = GI50 up to about 1.1 µM and inactive = higher.

Assays:
Assay in all cases: NCI anticancer screen, dose series, 48 h
DMS-273 = test system: DMS-273
HOP-18 = test system: HOP-18
KM-20L2 = test system: KM-20L2
LXFL 529 = test system: LXFL 529
SNB-78 = test system: SNB-78
DMS-114 = test system: DMS-114
M19-MEL = test system: M19-MEL
RXF 631 = test system: RXF 631
XF498 = test system: XF498

Measured: GI50

C=C(C=O)CCCC(C)[C@@H]1CCC23CC12CCC1[C@@]2(C)CCC(OC(C)=O)C(C)(C)C2CC(OC2OC(COC(C)=O)C(O)C(O)C2O)[C@]13C (stereo not given in full)
inactive: DMS-273 5.82 µM | HOP-18 9.64 µM | KM-20L2 6.5 µM | LXFL 529 2.66 µM | SNB-78 1.14 µM

COC(=O)CC1NC(=O)C1C(C)(OC)OC (stereo not given)
inactive: DMS-114 > 100 µM | DMS-273 > 100 µM | KM-20L2 > 100 µM | LXFL 529 > 100 µM | M19-MEL > 100 µM | RXF 631 > 100 µM | XF498 > 100 µM

COC1OC2COC(c3ccccc3)OC2C(O)C1Br (stereo not given)
inactive: DMS-273 > 100 µM | HOP-18 > 100 µM | KM-20L2 > 10 µM | LXFL 529 > 100 µM | M19-MEL > 100 µM | SNB-78 > 100 µM | XF498 > 100 µM

O=C1CC2Sc3ccccc3N=C2N1c1ccc(Cl)cc1Cl (stereo not given)
inactive: DMS-114 33 µM | HOP-18 > 100 µM | KM-20L2 > 100 µM | LXFL 529 84.9 µM | M19-MEL 50 µM | RXF 631 65.3 µM | SNB-78 65.8 µM | XF498 > 100 µM

NCCCNC(=O)c1csc(NC(=O)c2csc(NC(=O)CCCN)n2)n1
inactive: DMS-114 > 100 µM | DMS-273 > 100 µM | HOP-18 > 100 µM | KM-20L2 > 100 µM | LXFL 529 > 100 µM | M19-MEL > 100 µM | RXF 631 > 100 µM | SNB-78 > 100 µM

CCN(CC)CCCNc1ccc2nnn3c4ccc(O)cc4c(=O)c1c23
inactive: DMS-114 11.7 µM | DMS-273 3.44 µM | HOP-18 14.3 µM | KM-20L2 5.3 µM | LXFL 529 7.67 µM | M19-MEL 13.8 µM | RXF 631 1.88 µM | SNB-78 16.4 µM | XF498 15.5 µM

Cc1ccc(S(=O)(=O)OCCn2cnc3nc(NC(=O)c4ccccc4)[nH]c(=O)c32)cc1
inactive: DMS-114 > 100 µM | DMS-273 > 100 µM | HOP-18 > 100 µM | KM-20L2 > 100 µM | LXFL 529 94.6 µM | M19-MEL > 100 µM | SNB-78 > 100 µM

COc1cc(/C=C2\[C@H]3c4c(c(OC)c(C)c(OC)c4OC)CC(C(=O)N2Cc2ccccc2)N3C)c(OC)c(C)c1OC
inactive: DMS-273 15.5 µM | HOP-18 23.7 µM | KM-20L2 20.3 µM | LXFL 529 19.4 µM | M19-MEL 17.4 µM

COc1ccc2c3c([nH]c2c1[N+](=O)[O-])C(C)N(Cc1ccc([N+](=O)[O-])cc1)CC3 (stereo not given)
inactive: DMS-273 6.24 µM | KM-20L2 10.8 µM | LXFL 529 5.7 µM | SNB-78 26.2 µM

CCOC(=O)NC(=O)c1cn(CCCCCCCCCCC(=O)N2CCN(CCn3cc(C(=O)NC(=O)OCC)c(=O)[nH]c3=O)CC2)c(=O)[nH]c1=O
inactive: DMS-114 > 100 µM | DMS-273 > 100 µM | HOP-18 > 100 µM | KM-20L2 > 100 µM | LXFL 529 > 100 µM | M19-MEL > 100 µM | RXF 631 > 100 µM | SNB-78 > 100 µM | XF498 > 100 µM

CC1=C(c2ccccc2)CON(c2ccccc2)C1
inactive: DMS-114 31 µM | KM-20L2 31.4 µM | LXFL 529 29.1 µM | M19-MEL 38.7 µM | RXF 631 24.8 µM | SNB-78 39.9 µM | XF498 40.6 µM

O=S(=O)(O)C(F)(F)C(F)(F)C(F)(F)C(F)(F)F
inactive: DMS-114 > 100 µM | DMS-273 > 100 µM | HOP-18 > 100 µM | KM-20L2 > 100 µM | LXFL 529 > 100 µM | M19-MEL > 100 µM | XF498 > 100 µM

c1ccc(SC(CCCCOC2CCCCO2)Sc2ccccc2)cc1 (stereo not given)
inactive: DMS-114 34.1 µM | DMS-273 > 100 µM | LXFL 529 41.1 µM | M19-MEL 46.6 µM | SNB-78 97.1 µM | XF498 > 100 µM

O=C(O)CCCNS(=O)(=O)c1ccccc1
inactive: DMS-273 > 100 µM | HOP-18 > 100 µM | KM-20L2 > 100 µM | LXFL 529 > 100 µM | M19-MEL > 100 µM | XF498 69.3 µM

COc1ccc(/C=N/NC(=O)C2=C(N)N(c3ccccc3)C(=C(C#N)C#N)S2)cc1
inactive: HOP-18 > 100 µM | LXFL 529 > 100 µM | M19-MEL > 100 µM

O=C1c2ccccc2C(=O)N1C/C=C/CO
inactive: DMS-114 > 100 µM | DMS-273 > 100 µM | HOP-18 > 100 µM | KM-20L2 > 100 µM | LXFL 529 > 100 µM | M19-MEL > 100 µM | SNB-78 > 100 µM

COc1cc2nc(Sc3c([N+](=O)[O-])ncn3C)[nH]c2cc1OC
inactive: DMS-114 11.6 µM | DMS-273 1.65 µM | HOP-18 > 100 µM | KM-20L2 33.6 µM | LXFL 529 12.4 µM | M19-MEL 33.1 µM | RXF 631 1.74 µM | SNB-78 34.8 µM | XF498 11 µM

COC1CC2C3/C(=N/Nc4ccc([N+](=O)[O-])cc4[N+](=O)[O-])CCC2(C)C3C1 (stereo not given)
inactive: DMS-114 > 100 µM | DMS-273 > 10 µM | HOP-18 > 10 µM | KM-20L2 > 10 µM | LXFL 529 > 10 µM | M19-MEL > 10 µM | XF498 > 100 µM

CCOC(=O)C[C@@H](C)[C@]1(C(=O)OC)CCCC1=O
inactive: DMS-114 > 44.4 µM | DMS-273 > 70.6 µM | HOP-18 > 100 µM | KM-20L2 > 59.2 µM | LXFL 529 > 100 µM | M19-MEL > 100 µM | SNB-78 > 100 µM | XF498 > 100 µM

CCOC(OC1=CCCC1)C(C)[Se]c1ccccc1 (stereo not given)
inactive: DMS-114 6.81 µM | DMS-273 16.9 µM | HOP-18 28.2 µM | KM-20L2 29.4 µM | LXFL 529 35.7 µM | M19-MEL 24.4 µM | RXF 631 16.5 µM | SNB-78 > 100 µM | XF498 20.4 µM

O=C(NC(=O)c1cn(CCN2CCN(C(=O)NCCCCCCNC(=O)N3CCN(CCn4cc(C(=O)NC(=O)OCc5ccccc5)c(=O)[nH]c4=O)CC3)CC2)c(=O)[nH]c1=O)OCc1ccccc1
inactive: DMS-114 > 100 µM | DMS-273 > 100 µM | HOP-18 > 100 µM | KM-20L2 > 100 µM | M19-MEL > 100 µM | RXF 631 > 100 µM | SNB-78 > 100 µM

O=C1c2ccccc2C2C1N2C(=O)C(F)(F)F (stereo not given)
inactive: DMS-114 39.9 µM | DMS-273 > 100 µM | HOP-18 > 100 µM | KM-20L2 > 100 µM | LXFL 529 > 100 µM | M19-MEL > 100 µM | RXF 631 94.6 µM | XF498 > 100 µM

C1=CC=C2NCCC/N=C3/C=CC=CC=C3NCCC/N=C\2C=C1
inactive: DMS-114 > 100 µM | DMS-273 > 100 µM | KM-20L2 > 100 µM | LXFL 529 > 100 µM | M19-MEL > 100 µM | RXF 631 > 100 µM | SNB-78 > 100 µM | XF498 > 100 µM

CN1N=C2c3ccccc3CC[C@H]2C1c1cccc(O)c1 (stereo not given in full)
inactive: DMS-114 > 100 µM | DMS-273 > 100 µM | KM-20L2 > 100 µM | LXFL 529 99.5 µM | M19-MEL > 100 µM | XF498 > 100 µM

CCCCCCCC[N+](C)(C)Cc1ccc(C[N+](C)(C)CCCCCCCC)cc1
inactive: DMS-114 8.67 µM | DMS-273 3.84 µM | HOP-18 > 100 µM | KM-20L2 7.71 µM | LXFL 529 14.6 µM | M19-MEL 31.3 µM | RXF 631 > 100 µM | SNB-78 44.3 µM

CC(=O)Nc1ccc(C(=O)N2N=C(C)/C(=C/c3cccc([N+](=O)[O-])c3)C2=O)cc1
inactive: DMS-114 > 100 µM | DMS-273 > 100 µM | HOP-18 > 100 µM | M19-MEL > 100 µM | SNB-78 > 100 µM
